Data set [1] can be described thus: Hepatotoxicity in rat primary cells assessed as change in GSH level for 10 days. The following applies: hepatocytes, 240 h, time 10 day. Format: toxicity, cell-based, Hepatocyte.
Data set [2] concerns the target Proto-oncogene tyrosine-protein kinase Src (Homo sapiens, UniProt P12931). In words: Binding affinity to wild-type human partial length SRC (L240 to L536 residues) expressed in bacterial expression system by Kinomescan method.
A short description of data set [3]: Drugmetabolism in cynomolgus monkey hepatocytes assessed as metabolite formation. The data set is classed as ADME, cell-based, Macaca fascicularis, Hepatocyte.
Data set [4] can be described thus: Drugmetabolism in dog hepatocytes assessed as metabolite formation. Format: ADME, cell-based, Canis lupus familiaris, Hepatocyte.
Data set [5] is described as follows: Apparent permeability across apical to basolateral side in human Caco2 cells. Particulars: Caco-2. Format: ADME, cell-based. (In general: Caco-2 cells form a polarised layer with tight junctions and transporters.)
A short description of data set [6]: Volume of distribution at steady state in Spargue-Dawley rat at 5 mg/kg, po. Format: ADME, organism-based. Particulars: in vivo.
The target of data set [7] is Tyrosine-protein kinase Tec (Homo sapiens, UniProt P42680). In words: Binding affinity to wild-type human partial length TEC (L341 to D620 residues) expressed in bacterial expression system by Kinomescan method.
Sequence of Tyrosine-protein kinase Tec (P42680 whole entry, the tested form may be a part): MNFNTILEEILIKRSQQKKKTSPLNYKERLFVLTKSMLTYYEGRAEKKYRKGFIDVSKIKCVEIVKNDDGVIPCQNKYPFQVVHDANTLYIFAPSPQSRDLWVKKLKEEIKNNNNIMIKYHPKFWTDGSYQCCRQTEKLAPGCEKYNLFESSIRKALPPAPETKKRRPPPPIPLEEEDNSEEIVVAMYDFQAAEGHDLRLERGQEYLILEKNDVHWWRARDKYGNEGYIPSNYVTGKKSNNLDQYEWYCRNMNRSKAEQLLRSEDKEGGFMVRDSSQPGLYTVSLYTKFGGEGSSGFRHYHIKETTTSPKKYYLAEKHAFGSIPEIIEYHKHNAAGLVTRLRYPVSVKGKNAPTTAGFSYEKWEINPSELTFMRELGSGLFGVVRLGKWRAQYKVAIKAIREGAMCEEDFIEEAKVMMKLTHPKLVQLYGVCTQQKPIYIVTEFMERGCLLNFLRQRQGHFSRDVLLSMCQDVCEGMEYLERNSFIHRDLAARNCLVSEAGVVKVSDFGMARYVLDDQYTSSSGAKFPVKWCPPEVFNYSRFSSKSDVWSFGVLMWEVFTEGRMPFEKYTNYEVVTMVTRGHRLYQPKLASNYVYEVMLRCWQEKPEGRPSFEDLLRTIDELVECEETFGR
The target in a further data set is Cytochrome P450 1A2 (Homo sapiens, UniProt P05177). Kind of data set: Inhibition of CYP1A2 in human liver microsomes at 10 to 50 uM. Format: ADME. Particulars: dose 10-50 µM. Background: Liver microsomes are a subcellular fraction often used to study metabolism.
Sequence of Cytochrome P450 1A2 (P05177 whole entry): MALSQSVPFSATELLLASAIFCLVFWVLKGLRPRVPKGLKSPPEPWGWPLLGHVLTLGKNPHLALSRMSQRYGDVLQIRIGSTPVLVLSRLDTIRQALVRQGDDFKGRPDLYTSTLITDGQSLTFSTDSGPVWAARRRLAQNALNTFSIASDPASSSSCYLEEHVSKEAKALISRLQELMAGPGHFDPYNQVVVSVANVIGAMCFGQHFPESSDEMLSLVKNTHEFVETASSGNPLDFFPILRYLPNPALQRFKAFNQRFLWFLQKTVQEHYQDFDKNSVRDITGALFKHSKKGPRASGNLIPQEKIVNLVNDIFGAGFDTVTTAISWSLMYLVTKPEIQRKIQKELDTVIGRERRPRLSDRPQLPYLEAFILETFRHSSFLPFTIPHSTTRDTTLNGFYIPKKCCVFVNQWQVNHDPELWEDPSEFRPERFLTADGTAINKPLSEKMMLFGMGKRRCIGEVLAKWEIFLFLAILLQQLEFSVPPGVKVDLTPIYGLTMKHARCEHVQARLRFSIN
Data set [8] can be described thus: Protein binding in human plasma assessed as unbound fraction. Format: ADME, cell-free.
Data set [9] has as its target Voltage-gated inwardly rectifying potassium channel KCNH2 (Homo sapiens, UniProt Q12809). Kind of data set: Inhibition of human ERG by patch clamp method. Format: toxicity. On the technique in general: In patch-clamp work, channel activity is measured electrically.
Data set [10] is described as follows: Volume of distribution at steady state in cynomolgus monkey at 5 mg/kg, po. The following applies: in vivo. Format: ADME, organism-based, Macaca fascicularis.
A further data set addresses Cytochrome P450 2C19 (Homo sapiens, UniProt P33261). Kind of data set: Inhibition of CYP2C19 in human liver microsomes at 10 to 50 uM. The data set is classed as ADME. The following applies: dose 10-50 µM.
Data set [11] in a line: In vivo inhibition of BTK-dependent B cell activation in C57BL/6 mouse immunized with NP-Ficoll assessed as reduction in anti-NP IgM antibody titer at 1 mg/kg, po BID dosed for 10 days. Also on record: scale not given: the % may be the effect or the level left. The data set is classed as functional. The following applies: time 10 day.
Data set [12] is described as follows: Kinetic aqueous solubility of the compound in pH 6.8. The data set is classed as physicochemical. Particulars: read-out: Kinetic_solubility.
A further data set has as its target Cytochrome P450 2C9 (Homo sapiens, UniProt P11712). Kind of data set: Inhibition of CYP2C9 in human liver microsomes at 10 to 50 uM. Format: ADME. The following applies: dose 10-50 µM.
For a further data set, the target named is Cytochrome P450 3A4 (Homo sapiens, UniProt P08684). In words: Inhibition of CYP3A4 in human liver microsomes at 10 to 50 uM. Format: ADME. Particulars: dose 10-50 µM.
Sequence of Cytochrome P450 3A4 (P08684 whole entry): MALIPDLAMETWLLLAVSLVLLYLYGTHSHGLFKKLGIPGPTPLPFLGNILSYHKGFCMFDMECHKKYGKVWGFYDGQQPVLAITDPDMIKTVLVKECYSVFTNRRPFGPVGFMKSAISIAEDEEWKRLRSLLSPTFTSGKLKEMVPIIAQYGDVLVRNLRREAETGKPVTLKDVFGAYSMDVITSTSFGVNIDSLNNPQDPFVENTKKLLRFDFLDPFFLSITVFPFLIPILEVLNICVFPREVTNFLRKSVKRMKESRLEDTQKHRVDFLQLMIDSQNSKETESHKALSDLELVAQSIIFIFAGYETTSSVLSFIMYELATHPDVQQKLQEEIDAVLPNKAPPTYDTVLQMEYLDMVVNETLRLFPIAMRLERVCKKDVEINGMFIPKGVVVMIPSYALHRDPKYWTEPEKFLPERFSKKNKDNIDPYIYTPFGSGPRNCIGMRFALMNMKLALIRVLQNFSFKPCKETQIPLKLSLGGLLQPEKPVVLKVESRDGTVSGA
For data set [13], the target named is Toll-like receptor 9 (Homo sapiens) (UniProt Q9NR96). Kind of data set: Inhibition of TLR9 in CpG-B stimulated human PBMC at >10 uM. Format: cell-based. The following applies: dose microM >10.

Activity calls are given as the source filed them. The calls are words filed in the database; no cut-off is given here. Bounds are passed on as bounds.

Sequence of Cytochrome P450 2C9 (P11712 whole entry): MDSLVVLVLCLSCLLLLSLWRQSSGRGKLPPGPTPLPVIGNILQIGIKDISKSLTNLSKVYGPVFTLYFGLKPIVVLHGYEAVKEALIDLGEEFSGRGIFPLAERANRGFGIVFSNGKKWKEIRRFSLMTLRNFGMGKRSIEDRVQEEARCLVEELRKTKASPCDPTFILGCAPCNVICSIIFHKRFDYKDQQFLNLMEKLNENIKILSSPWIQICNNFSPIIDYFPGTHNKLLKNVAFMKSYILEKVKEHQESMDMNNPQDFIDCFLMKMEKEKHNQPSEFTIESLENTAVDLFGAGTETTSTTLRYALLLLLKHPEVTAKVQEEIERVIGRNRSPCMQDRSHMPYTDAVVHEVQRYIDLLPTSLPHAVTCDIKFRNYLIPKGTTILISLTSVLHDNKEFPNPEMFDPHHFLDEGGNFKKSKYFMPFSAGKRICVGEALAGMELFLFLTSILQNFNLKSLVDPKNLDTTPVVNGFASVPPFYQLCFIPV
Sequence of Cytochrome P450 2C19 (P33261 whole entry): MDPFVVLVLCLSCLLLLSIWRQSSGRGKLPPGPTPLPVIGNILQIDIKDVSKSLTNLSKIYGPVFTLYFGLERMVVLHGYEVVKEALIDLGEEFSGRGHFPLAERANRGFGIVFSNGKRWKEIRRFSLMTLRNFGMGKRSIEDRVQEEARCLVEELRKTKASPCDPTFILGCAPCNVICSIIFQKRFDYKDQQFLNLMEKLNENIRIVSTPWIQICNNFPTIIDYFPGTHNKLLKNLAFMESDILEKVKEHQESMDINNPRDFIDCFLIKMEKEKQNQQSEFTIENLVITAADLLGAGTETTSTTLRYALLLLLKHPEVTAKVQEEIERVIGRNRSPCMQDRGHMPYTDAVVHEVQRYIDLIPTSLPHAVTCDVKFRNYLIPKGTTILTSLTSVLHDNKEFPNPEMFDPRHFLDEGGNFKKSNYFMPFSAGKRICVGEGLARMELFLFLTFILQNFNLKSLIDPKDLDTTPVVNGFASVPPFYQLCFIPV
Sequence of Voltage-gated inwardly rectifying potassium channel KCNH2 (Q12809 whole entry): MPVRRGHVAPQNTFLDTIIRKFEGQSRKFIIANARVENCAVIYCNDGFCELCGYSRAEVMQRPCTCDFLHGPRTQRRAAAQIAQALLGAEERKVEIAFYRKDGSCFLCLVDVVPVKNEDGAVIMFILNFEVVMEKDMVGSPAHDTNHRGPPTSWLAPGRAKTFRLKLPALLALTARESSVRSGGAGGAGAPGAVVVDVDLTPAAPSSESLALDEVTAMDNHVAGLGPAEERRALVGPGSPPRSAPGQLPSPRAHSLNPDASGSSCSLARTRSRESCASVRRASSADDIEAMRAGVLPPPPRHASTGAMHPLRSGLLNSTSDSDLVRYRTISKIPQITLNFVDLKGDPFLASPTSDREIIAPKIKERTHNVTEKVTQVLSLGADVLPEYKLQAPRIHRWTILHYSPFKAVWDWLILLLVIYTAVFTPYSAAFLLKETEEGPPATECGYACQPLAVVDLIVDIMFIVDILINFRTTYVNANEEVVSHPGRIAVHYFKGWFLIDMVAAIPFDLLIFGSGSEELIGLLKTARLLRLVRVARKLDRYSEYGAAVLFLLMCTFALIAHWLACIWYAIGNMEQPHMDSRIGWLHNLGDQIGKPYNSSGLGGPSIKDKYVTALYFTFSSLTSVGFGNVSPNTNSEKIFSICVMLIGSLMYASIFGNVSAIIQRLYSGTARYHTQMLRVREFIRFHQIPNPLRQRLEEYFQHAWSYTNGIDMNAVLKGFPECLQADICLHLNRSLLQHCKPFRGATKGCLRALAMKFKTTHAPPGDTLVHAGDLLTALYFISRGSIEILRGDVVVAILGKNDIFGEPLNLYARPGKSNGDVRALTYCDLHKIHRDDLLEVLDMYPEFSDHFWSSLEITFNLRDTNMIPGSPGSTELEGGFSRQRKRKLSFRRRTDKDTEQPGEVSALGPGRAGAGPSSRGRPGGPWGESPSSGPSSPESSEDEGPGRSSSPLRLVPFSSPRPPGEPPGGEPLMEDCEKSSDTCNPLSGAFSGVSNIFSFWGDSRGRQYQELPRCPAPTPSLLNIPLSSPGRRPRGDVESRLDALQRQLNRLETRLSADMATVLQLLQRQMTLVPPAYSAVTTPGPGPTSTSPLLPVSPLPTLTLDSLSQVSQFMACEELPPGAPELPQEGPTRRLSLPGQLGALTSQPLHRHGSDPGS
Sequence of Proto-oncogene tyrosine-protein kinase Src (P12931 2-536 limits assumed): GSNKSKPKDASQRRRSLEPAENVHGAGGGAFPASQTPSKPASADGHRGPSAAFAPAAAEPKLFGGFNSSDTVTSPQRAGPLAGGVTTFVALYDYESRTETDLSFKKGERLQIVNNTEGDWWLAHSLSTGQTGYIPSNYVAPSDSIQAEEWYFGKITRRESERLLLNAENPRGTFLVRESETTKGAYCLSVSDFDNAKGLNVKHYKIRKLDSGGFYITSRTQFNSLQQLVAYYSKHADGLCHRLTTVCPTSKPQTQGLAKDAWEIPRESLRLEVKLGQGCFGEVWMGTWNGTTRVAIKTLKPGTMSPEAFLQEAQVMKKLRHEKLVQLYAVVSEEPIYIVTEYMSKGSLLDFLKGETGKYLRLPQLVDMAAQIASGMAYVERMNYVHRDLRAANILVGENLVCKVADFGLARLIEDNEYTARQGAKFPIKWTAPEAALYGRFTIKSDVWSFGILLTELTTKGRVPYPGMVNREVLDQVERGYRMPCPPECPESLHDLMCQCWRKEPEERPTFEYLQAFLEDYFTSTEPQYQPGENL

Regarding `Cn1cc(Nc2nccc(-c3ccc4c(c3)CN(C3COC3)CC[C@H]4NC(=O)c3cn(C(C)(C)C)nn3)n2)cn1` [BIIB-091], the Activity entry in data set [1] is on record as “Non-Toxic”; in data set [11] it was 59%. The Kd (usually the free concentration of one partner at which half of the binding sites on the other are occupied at equilibrium, for simple one-to-one binding) in data set [2] amounted to 0.32 µM; in [7] it was 0.24 µM. Besides, the Drug metabolism entry in [3] and in data set [4] was “Metabolite_Notdetected” each time. For the same compound, in data set [5], the Papp A→B – broadly, how fast a substance crosses the layer from the apical side – amounted to 17.8 nm/s. Besides, the Vdss stood at 0.4 L/kg in data set [6] and 0.7 L/kg in data set [10]. For the same compound, the “inhibition (INH)” value on Cytochrome P450 1A2, against Cytochrome P450 2C19, at Cytochrome P450 2C9 and against Cytochrome P450 3A4 was “Not Active” each time. Further, the fraction unbound (as a rule, free concentration divided by total concentration) in data set [8] turned out to be 0.26. In data set [9], the IC50 – broadly, the concentration that inhibits the measured activity by half – was over 25 µM. Besides, the solubility kinetic in data set [12] is over 0.05 mg/mL. Also, in [13], the inhibition result is “inactive”.

Source of the values: ChEMBL document CHEMBL5042486, “Discovery and Preclinical Characterization of BIIB091, a Reversible, Selective BTK Inhibitor for the Treatment of Multiple Sclerosis” (J Med Chem, 2022).
